Data: patent EP0761222A1, “Use of orotic acid for the preparation of a medicament for amelioration of microcirculation” (WÖRWAG PHARMA GmbH, priority 1995, dated 1997)

Key:
Assay type in all cases: in vivo
[1] = system: Kaninchen; assay: Arteriosclerosis model under 2 % cholesterol diet, planimetric-photographic (density slice) and histological evaluation of vessels; conditions: 112 Tage 2 % cholesterol diet; for Index arteriosklerotischer Gefäßveränderungen (Gefäßverengungen): equimolar amounts, untreated control index 34,36, Fig. 1
From the text: (§1) In einer Versuchsreihe mit einem Arteriosklerose-Modell wurden Kaninchen über 112 Tage einer zweiprozentigen Cholesterindiät ausgesetzt und mit äquimolaren Mengen von` Magnesiumchlorid, Orotsäure und Magnesiumorotat bzw. in der Kontrollgruppe überhaupt nicht weiter behandelt. Zusätzlich zu histologischen Untersuchungen der Koronaarterien sowie der Aorta femoralis und renalis wurde der Zustand der Aorta an jeweils mehreren Stellen auch planimetrisch-photographisch dokumentiert. Mittels einer computergestützten, digitalen Methode der Oberflächenmessung ("density slice"-Methode) erhält man hierbei dreidimensionale Bilder, mit deren Hilfe auch eine Quantifizierung der cholesterininduzierten Lumeneinengungen möglich ist.

[2] = system: Triathleten; assay: Double-blind, randomised, placebo-controlled triathlon test, parameters of energy metabolism in blood; conditions: four weeks Magnesiumorotat 17 mmol/Tag
From the text: In einer doppelblinden, randomisierten und placebokontrollierten Studie wurden 23 Triathleten einem 500 m Schwimm-, 20 km Fahrrad- und 5.000 m Lauftest nach einer vierwöchigen Magnesiumorotat-Supplementierung von 17 mmol/Tag unterworfen. Die Tests wurden ohne Pausen direkt hintereinander absolviert. Vor dem Test, zwischen den Disziplinen und am Ende wurde den Probanden Blut entnommen und auf Parameter des Energiestoffwechsels untersucht.

[3] = system: Patienten mit Durchblutungsstörungen; assay: Effect of a single oral dose of Magnesiumorotat on flow properties of human blood, blood pressure and transcutaneous oxygen pressure
Experimental: 10 Patienten mit Durchblutungsstörungen wurden 4 g Magnesiumorotat zusammen mit ca. 150 ml Wasser verabreicht. Die Blutentnahme erfolgte vor und im Abstand von 15, 30, 60, 120 und 180 Minuten nach der Tabletteneinnahme. Direkt vor jeder Blutentnahme wurden Blutdruck, Puls, der transkutane Sauerstoffdruck, der transkutane Kohlendioxiddruck und die Heizleistungsabweichung gemessen. Es wurden folgende Blutparameter untersucht: • Hämatokrit • BSC • Plasmaviskosität • Erythrozytenaggregation • Erythrozytenfiltrabilität.
Es wurde eine Senkung des systemischen Druckes, insbesondere des systolischen Druckes, bis zum Zeitpunkt 60 Minuten nach Tablettenvergabe festgestellt. Die relative Plasmaviskosität erreicht 60 Minuten nach Tabletteneinnahme ihr Minimum mit anschließender Tendenz zur Normalisierung. In ähnlicher Weise verhält sich die Blutviskosität, die 30 Minuten nach Tabletteneinnahme ein Minimum aufweist.
Besonders interessant sind die Veränderungen der transkutanen Sauerstoffdruckwerte, die im Bereich des Vorfußes abgenommen werden. Bei diesen Patienten mit einer chronisch-arteriellen Verschlußkrankheit sind die tcpO2-Werte bekannterweise nicht sonderlich erniedrigt. Die Ergebnisse der pO2-Werte zeigen doch, daß es zu einem Anstieg der pO2-Werte kommt, die zu dem Zeitpunkt 15 und 30 Minuten statistisch gesichert sind. Dieser Anstieg der tcpO2-Werte überrascht und beruht auf den verbesserten Fließeigenschaften des Blutes.

[4] = system: Wistar-Ratten; assay: Hypertension animal model (ROG-Modell, LG-Modell), malignant hypertension
From the text: In den Hypertonie-Tiermodellen nach Rojo-Ortega-Genest (ROG-Modell) und Lörincz-Goracz (LG-Modell) wird bei Wistar-Ratten die Aorta zwischen den beiden Renalarterien unterbunden bzw. die Niere in eine Gummimanschette fest eingepreßt, was einen malignen Hypertonus hervorruft, also eine Hypertonie mit konstanter Erhöhung des arteriellen diastolischen Blutdruckes auf > 120 mmHg.
Das Ergebnis dieser Untersuchung ist in Fig. 2 dargestellt, wobei die dunklen Säulen jeweils den Beginn der ROG-Hypertonie anzeigen, während die hellen Säulen das Ende der ROG-Hypertonie darstellen. Links in Fig. 2 ist die ROG-Hypertonie ohne Behandlung gezeigt, während die beiden rechten Säulen den Verlauf der ROG-Hypertonie unter Zugabe von täglich 300 mg Magnesiumorotat wiedergibt.

[5] = system: Kaninchen; assay: Coronary angiography in the arteriosclerosis model of Beispiel 2; conditions: cholesterol stress, untreated control developed Mikroangiopathien
From the text: as §1
Zusätzlich zu den planimetrisch-photographischen Untersuchungen wurde bei der Versuchsreihe aus Beispiel 2 auch eine koronarangiographische Untersuchung vorgenommen.

Row | Compound | Index arteriosklerotischer Gefäßveränderungen (Gefäßverengungen) [1] | lumeneinengende Proliferation von Schaumzellen in den Koronarien ([1]; light/electron microscopy, enzyme histochemistry) | Insulinkonzentration ([2]; control group 139 ± 101 %, significant) [% der Anfangswerte] | Anstieg der Glukosekonzentration während des Tests ([2]; control group 187 ± 34 %, significantly lower) [%] | systemischer Druck, insbesondere systolischer Druck ([3]; 4 g Magnesiumorotat oral, single dose, 10 patients, until 60 Minuten after tablet intake) | Erythrozytenfiltrationswerte ([3]; 4 g Magnesiumorotat oral, 15-180 Minuten after intake) | transkutane Sauerstoffdruckwerte (tcpO2-Werte), Vorfuß ([3]; 4 g Magnesiumorotat oral, statistically confirmed at 15 and 30 Minuten) | Hämatokritwert ([3]; 4 g Magnesiumorotat oral, tendency to rise again at end of test) | Zeitpunkt des Minimums der Blutviskosität ([3]; 4 g Magnesiumorotat oral, time after tablet intake) [Minuten] | Zeitpunkt des Minimums der relativen Plasmaviskosität ([3]; 4 g Magnesiumorotat oral, time after tablet intake, then tendency to normalise) [Minuten] | Mikrozirkulation (Kapillarfluß an dem Nagelbett) ([3]; acute oral dose of 4 g Magnesiumorotat) | Blut- und Plasmaviskosität ([3]; acute oral dose of 4 g Magnesiumorotat, patients with arterial occlusive disease) | periarterielle Zellinfiltrationen und Herzmuskelzellausfälle ([4]; 300 mg Magnesiumorotat daily, compared with no treatment) | Blutdruck systolisch, Ende der ROG-Hypertonie ([4]; ROG-Modell, 300 mg Magnesiumorotat daily, untreated control animals 186 mmHg) [mmHg] | Blutdruck systolisch, Ausgangswert ([4]; ROG-Modell, start of ROG-Hypertonie, treated group, control 81 mmHg) [mmHg] | Wirkung bei Mikroangiopathien von kleinen und kleinsten Blutgefäßen am Herzen [5]
1 | O=C(O)c1cc(=O)[nH]c(=O)[nH]1 [Magnesiumorotat] | 7,28 | weitaus am geringsten ausgeprägt | 65 ± 43 | 118 ± 45 | Senkung | zu keinem Zeitpunkt nach der oralen Gabe von Magnesiumorotat zu statistisch signifikanten Veränderungen | Anstieg | temporäre Abnahme | 30 | 60 | erheblich verbesserten | signifikant vermindert | weit weniger | 152 | 79 | präventive und therapeutische Wirkung
2 | [Cl-].[Cl-].[Mg+2] [Magnesiumchlorid, reference compound] | 22,63 |  |  |  |  |  |  |  |  |  |  |  |  |  |  | 
3 | O=C(O)c1cc(=O)[nH]c(=O)[nH]1 [Orotsäure] | 9,77 |  |  |  |  |  |  |  |  |  |  |  |  |  |  | präventive und therapeutische Wirkung
